The nature of series [1]: Selectivity index, ratio of ED50 for human KB cells to ED50 for chloroquine-resistant Plasmodium falciparum W2. It is filed as toxicity, cell-based. Conditions: read-out: Selectivity Index.
A further series concerns Col2. As to the kind of experiment: Cytotoxicity against human Col2 cells after 3 days by SRB assay. It is filed as functional. The note with it: Col2, 72 h, read-out: ED50 (the source's name). In general terms: The SRB assay estimates cell density from bound dye.
Series [2] can be described thus: Selectivity index, ratio of ED50 for human KB cells to ED50 for chloroquine-sensitive Plasmodium falciparum D6. It is filed as toxicity, cell-based. Conditions: read-out: Selectivity Index.
For the next series, the system named is KB. As to the kind of experiment: Cytotoxicity against human KB cells after 3 days by SRB assay. It is filed as functional. The note with it: 72 h, read-out: ED50 (the source's name).
Series [3] deals with Plasmodium falciparum. As to the kind of experiment: Antimalarial activity against chloroquine-sensitive Plasmodium falciparum D6 infected human erythrocytes after 24 hrs by [3H]hypoxanthine uptake. It is filed as functional. The note with it: read-out: ED50 (the source's name).
Series [4] addresses Human immunodeficiency virus type 1 reverse transcriptase (Human immunodeficiency virus 1) (UniProt Q72547). As to the kind of experiment: Inhibition of HIV1 reverse transcriptase.
In a further series the test system is ZR-75-1. As to the kind of experiment: Cytotoxicity against human ZR-75-1 cells after 3 days by SRB assay. In kind it is functional. The note with it: ZR-75-1, 72 h, read-out: ED50 (the source's name).
Series [5] in a line: Cytotoxicity against human KBVIN cells in presence of 1 ug/ml vinblastine after 3 days by SRB assay. The note with it: 72 h, read-out: ED50 (the source's name). In kind it is functional.
In another series the test system is A-431. As to the kind of experiment: Cytotoxicity against human A431 cells after 3 days by SRB assay. Conditions: A-431, 72 h, read-out: ED50 (the source's name). It is filed as functional.
In series [6] the test system is Plasmodium falciparum. As to the kind of experiment: Antimalarial activity against chloroquine-resistant Plasmodium falciparum W2 infected human erythrocytes after 24 hrs by [3H]hypoxanthine uptake. It is filed as functional. Conditions: read-out: ED50 (the source's name).
Another series has as its system LNCaP. As to the kind of experiment: Cytotoxicity against human LNCAP cells after 3 days by SRB assay. It is filed as functional. Conditions: 72 h, read-out: ED50 (the source's name).
Series [7] in a line: Cytotoxicity against human BCA1 cells after 3 days by SRB assay. In kind it is functional. The note with it: BCA1, 72 h, read-out: ED50 (the source's name).
Series [8] can be described thus: Cytotoxicity against human U373 cells after 3 days by SRB assay. Conditions: U373 MG, 72 h, read-out: ED50 (the source's name). In kind it is functional, U-373MG ATCC.
The subject of a further series is Lu1. As to the kind of experiment: Cytotoxicity against human Lu1 cells after 3 days by SRB assay. In kind it is functional. The note with it: Lu1, 72 h, read-out: ED50 (the source's name).
Another series deals with HT-1080. As to the kind of experiment: Cytotoxicity against human HT1080 cells after 3 days by SRB assay. It is filed as functional. The note with it: HT-1080, 72 h, read-out: ED50 (the source's name).
A further series relates to P388. As to the kind of experiment: Cytotoxicity against mouse P388 cells after 3 days by SRB assay. It is filed as functional. The note with it: P388, 72 h, read-out: ED50 (the source's name).
The nature of series [9]: Cytotoxicity against human KBVIN cells after 3 days by SRB assay. It is filed as functional. The note with it: 72 h, read-out: ED50 (the source's name).

Each structure is given as a SMILES string. In brackets after ≈: the same amount, converted by molar mass. Activity calls are given as the source filed them. No cut-off for these calls is given here. Where only a bound is given, the exact number is not on record here.

On to `COc1cc2c(cc1O)CCN(C)[C@H]2Cc1ccc(Oc2c(O)c(OC)cc3c2C[C@H]2c4c(c(OC)c(OC)c(OC)c4-3)CCN2C)cc1` [THALIFABERIDINE], for which the figures for the selectivity ratio in series [1] and in [2] were 47 and 6.5, respectively. Besides, the EC50 stood at 3.2 µg/mL (≈ 4.78 µM) with Col2; 5.7 µg/mL (≈ 8.52 µM) in the series on KB; 0.88 µg/mL (≈ 1.32 µM) in the series with Plasmodium falciparum [3]; 1.5 µg/mL (≈ 2.24 µM) with ZR-75-1; 17.7 µg/mL in series [5]; 6.7 µg/mL (≈ 10 µM) with A-431. Moreover, the EC50 with Plasmodium falciparum [6] came out at 0.122 µg/mL (≈ 0.182 µM); in the series with LNCaP, 3.7 µg/mL (≈ 5.53 µM); in series [7] it was 3.9 µg/mL (≈ 5.83 µM); in [8] it was 1.5 µg/mL (≈ 2.24 µM); in the series with Lu1, 5.4 µg/mL (≈ 8.07 µM); in the series with HT-1080, 3.1 µg/mL (≈ 4.64 µM). For the same molecule, the EC50 with P388 amounted to 0.6 µg/mL (≈ 0.897 µM); in series [9] it was 7.8 µg/mL (≈ 11.7 µM). In series [4], the result was inactive.

Consider `COc1cc2c(cc1OC)[C@H](Cc1ccc(Oc3c4c(cc(OC)c3OC)-c3c(OC)c(OC)c(OC)c5c3[C@H](C4)N(C)CC5)cc1)N(C)CC2` [THALIFABERINE], for which the results for the selectivity ratio in series [1] and in series [2] were 35 and 3, respectively. Further, the EC50 with Col2 amounted to 1.6 µg/mL (≈ 2.3 µM); in the series on KB, 15.5 µg/mL (≈ 22.2 µM); with Plasmodium falciparum [3], 5.09 µg/mL (≈ 7.3 µM); in the series with ZR-75-1, 3.7 µg/mL (≈ 5.31 µM); in series [5], 4.6 µg/mL; with A-431, 4.9 µg/mL (≈ 7.03 µM). For the same molecule, the EC50 came to 0.441 µg/mL (≈ 0.633 µM) with Plasmodium falciparum [6]; 5.7 µg/mL (≈ 8.18 µM) with LNCaP; 5.4 µg/mL (≈ 7.75 µM) in series [7]; 4.1 µg/mL (≈ 5.88 µM) in [8]; 16.3 µg/mL (≈ 23.4 µM) in the series with Lu1; 2.6 µg/mL (≈ 3.73 µM) in the series on HT-1080. For the same molecule, the values for the EC50 (in the series on P388; in series [9]) were 1.3 µg/mL (≈ 1.87 µM) and 1.2 µg/mL (≈ 1.72 µM), respectively. For the same molecule, the outcome in series [4] was inactive.

On to `OC(c1cc(C(F)(F)F)nc2c(C(F)(F)F)cccc12)C1CCCCN1` (centres undefined) [MEFLOQUINE], for which the selectivity ratio in series [1] was determined as 1840; in [2] it was 393. The EC50 amounted to 0.0089 µg/mL (≈ 0.0235 µM) in the series on Plasmodium falciparum [3] and 0.0019 µg/mL (≈ 0.00502 µM) in the series with Plasmodium falciparum [6].

Consider `CCN(CC)CCCC(C)Nc1ccnc2cc(Cl)ccc12` (centres undefined) [CHLOROQUINE], for which the EC50 in the series with Plasmodium falciparum [3] is 0.0035 µg/mL (≈ 0.0109 µM).

`C=C[C@H]1CN2CC[C@H]1C[C@H]2[C@H](O)c1ccnc2ccc(OC)cc12` [QUININE]: the selectivity ratio is > 340 in [1] and > 960 in series [2]. Also, the figures for the EC50 in the series with Plasmodium falciparum [3] and in the series with Plasmodium falciparum [6] were 0.0208 µg/mL (≈ 0.0641 µM) and 0.0592 µg/mL (≈ 0.182 µM), respectively.

As for `C[C@@H]1CC[C@H]2[C@@H](C)C(=O)O[C@@H]3O[C@@]4(C)CC[C@@H]1[C@]32OO4` [ARTEMISININ], the selectivity ratio is > 50000 in [1] and > 1820 in series [2]. Further, the EC50 in the series with Plasmodium falciparum [3] was 0.0011 µg/mL (≈ 0.0039 µM); in the series with Plasmodium falciparum [6] it was 0.0004 µg/mL (≈ 0.00142 µM).

For `COc1cc2c(c(O)c1OC)CCN(C)[C@H]2Cc1ccc(Oc2c3c(cc(OC)c2OC)-c2c(OC)c(OC)c(O)c4c2[C@H](C3)N(C)CC4)cc1` [THALIFASINE], the selectivity ratio worked out at 93 in series [1] and 19 in [2]. Also, the EC50 in the series with Col2 amounted to 2.1 µg/mL (≈ 3.01 µM); in the series with KB it was 4.6 µg/mL (≈ 6.58 µM); in the series on Plasmodium falciparum [3], 0.238 µg/mL (≈ 0.341 µM); with ZR-75-1 it was 1.2 µg/mL (≈ 1.72 µM); in [5], 5.7 µg/mL; with A-431, 8.2 µg/mL (≈ 11.7 µM). The EC50 was found to be 0.0493 µg/mL (≈ 0.0705 µM) with Plasmodium falciparum [6]; 3.3 µg/mL (≈ 4.72 µM) in the series with LNCaP; 2.4 µg/mL (≈ 3.43 µM) in series [7]; 2.2 µg/mL (≈ 3.15 µM) in [8]; 2 µg/mL (≈ 2.86 µM) in the series with Lu1; 1.3 µg/mL (≈ 1.86 µM) with HT-1080. Besides, the EC50 is 1.2 µg/mL (≈ 1.72 µM) with P388 and 1.6 µg/mL (≈ 2.29 µM) in series [9]. Further, the result in [4] was inactive.

The values are drawn from ChEMBL document CHEMBL1148074, “Thalifaberidine, a cytotoxic aporphine-benzylisoquinoline alkaloid from Thalictrum faberi” (J Nat Prod, 1994).
